# According to patent US20220160680A1, “MICROORGANISM MIXTURES, MOLECULES DERIVED THEREFROM, AND METHODS OF USE THEREOF” (B. G. Negev Technologies and Applications Ltd., at …, priority 2018, published 2022):
# “Also recorded” adds a separate entry of the source.
# Tests used:
# [1] = system: Pseudomonas aeruginosa LasR; experiment: Quorum sensing bioluminescence reporter assay; type: cell-based; settings: C12 AI
# Experimental: (§1) FIGS. 8A-8E are vertical bar graphs showing bioluminescence screening of quorum sensing (QS) inhibition or activation in the presence of synthetic Tryptophol acetate. The assay was performed using mutant bacteria lacking genes encoding autoinducers. Bacteria were also cloned with a bioluminescence reporter plasmid. N-acyl Homoserine Lactone (AHL) was used for activation (agonist) or inhibition (antagonist) of the following bacteria: Agrobacterium tumefaciens, which responds to the C8 autoinducer (AI), Vibrio cholerae responds to the CAI1 autoinducer, Pseudomonas aeruginosa RhlA responds to the C4 AI and Pseudomonas aeruginosa LasR responds to the C12 AI.
# (§2) Bioluminescence assay was performed with mutant bacteria lacking the nucleotide sequences encoding the relevant autoinducers (AI). Additionally, the bacteria were cloned with bioluminescence reporter plasmids in order to measure their luminescence intensity when quorum sensing gene expression occurs. Ninety-six (96) well microtiter plate assays were used to assess AI activation (agonist) or inhibition (antagonist) of the following bacteria: Agrobacterium tumefaciens, which responds to the C8 autoinducer, and both Vibrio cholerae and Vibrio harveyi, which respond to the (S)-4,5-dihydroxy-2,3-pentanedione (DPD) autoinducer to communicate.
# [2] = system: Pseudomonas aeruginosa RhlA; experiment: Quorum sensing bioluminescence reporter assay; type: cell-based; settings: C4 AI, high volume
# Experimental: as §1, §2
# P. aeruginosa (PA01) = experiment: Static biofilm assay (CLSM); type: cell-based, Pseudomonas aeruginosa; settings: 20 μM
# Experimental: (§3) For static biofilm assay, overnight cultures of P. aeruginosa (PA01), Salmonella and Staphylococcus aureus strains were diluted 1:10 in fresh LB medium containing a final concentration of synthesized molecule (203) of 20 or 50 μM, or DMSO (up to 1%) as control. Biofilms were grown under non-shaking conditions at 37° C. in 96-well plate (Thermo Scientific, Rochester, N.Y., USA). […] The stained cells were washed twice with PBS. Biofilm images were taken by CLSM (Plan-Apochromat 20×/0.8 M27, Zeiss LSM880, Germany).
# (§4) P. aeruginosa PA01, Salmonella and Staphylococcus aureus strains were incubated for 24 hr at 37° C. The bacterial suspension was diluted 1:10 with fresh LB and incubated for 3 h with the kefir biomass crude extract molecules or with DMSO as a control (refreshment sample). In all cultures, DMSO concentration was up to 1% (v/v). 200 μl of the broth medium mix with yogurt extract or with DMSO as control were placed in each well of a 96-well plate (Thermo Scientific, Rochester, N.Y., USA). 2 μl refreshment samples were added to each suitable well. The plate incubated for 24 hr at 37° C. After the incubation the samples washed three times with PBS. For visualizing of viable cells, the bacteria were stained green and dead cells stained red using the BacLight® Dead/Live Kit (Invitrogen, Eugene, Oreg., USA). The stained cells were washed twice with PBS. […]
# Salmonella = experiment: Static biofilm assay (CLSM); type: cell-based, Salmonella enteritidis; settings: 50 μM
# Experimental: as §3, §4
# [3] = system: P. aeruginosa (PA01), Salmonella and Staphylococcus aureus strains; experiment: Bacterial cell growth/viability (BacLight Dead/Live); type: cell-based
# Experimental: as §3, §4
# amyloid beta (αβ1-42) [4] = target: T1, amyloid beta (αβ1-42) (Homo sapiens, UniProt P05067); experiment: Thioflavin T (ThT) assay; type: biochemical; settings: 30 μM amyloid beta, 12 hours of incubation
# T1 construct: samples containing 30 μM amyloid beta [4(1-42)] in the absence or presence of tryptophol acetate
# T1 sequence (P05067 672-713 limits assumed): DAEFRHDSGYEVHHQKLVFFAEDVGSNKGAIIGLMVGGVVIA
# Experimental: ThT fluorescence measurements were taken at 37° C. using 96-well black plate on a Biotek Synergy H1 plate reader. Measurements were made on a samples containing 30 μM amyloid beta [4(1-42)] in the absence or presence of tryptophol acetate in different concentrations. A 120-μL aliquot of the aggregation reaction was mixed with 10 μM ThT in phosphate buffer (pH 7.4). The fluorescence intensity was measured every 30 min for 24 hr at λ excitation (λex)=440 and λ emission (λem)=485 nm.
# amyloid beta (αβ1-42) [5] = target: T1, amyloid beta (αβ1-42); experiment: Surface plasmon resonance, anti-amyloid oligomer antibody chip; type: binding; settings: 30 μM αβ1-42, 6-200 μM
# Experimental: SPR sensor chip with Oligomer All antibody, an anti-amyloid oligomer conformation-specific antibody was tested with samples containing 30 μM 4(1-42) in the absence or presence of tryptophol acetate in different concentrations.
smiles,measurement,setting,value
CC(=O)OCCc1c[nH]c2ccccc12 [Tryptophol acetate],Effect on QS in P. aeruginosa (LasR),[1],low inhibition effect
same,Effect on QS in P. aeruginosa (RhlA),[2],low inhibition effect
same,"Biofilm formation, P. aeruginosa",P. aeruginosa (PA01),did not seem to affect biofilm formation; also recorded: No influence
same,"Biofilm formation, Salmonella",Salmonella,significant influence on biofilm formation
same,Bacterial cell growth / viability,[3],did not impact cell growth
same,Amyloid beta fibrillation (ThT),amyloid beta (αβ1-42) [4],effectively reduced amyloid beta fibrillation; also recorded: reduced αβ1-42 fibrillation
same,Inhibition of amyloid beta (SPR),amyloid beta (αβ1-42) [5],dose dependent manner
